This is an account of results in PubChem BioAssay (NCI).

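Method: 48-hour compound exposure of cells in 96-well plates, five concentrations, linear interpolation of endpoints. GI50 is the concentration that inhibits growth by half. At the TGI there is no net growth.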

Test systems include CAKI-1 renal; COLO 205 colon; DU-145 prostate; IGROV1 ovarian; MDA-MB-435; MOLT-4 leukemia; NCI/ADR-RES ovarian; SK-MEL-28 melanoma; SNB-75 CNS.
What all share (assay): growth of human tumour cells (NCI), 48 h

With `COc1ccc2c(c1)c(=O)oc1cc(OC/C(=N\O)c3ccc(F)cc3)ccc12`, the GI50 with CAKI-1 renal was 19.9 µM; in the assay with COLO 205 colon it was 15.6 µM; in the assay with DU-145 prostate, 33.3 µM; in the assay on IGROV1 ovarian it was 20.5 µM; in the assay with MDA-MB-435 it was 12.6 µM; in the assay with MOLT-4 leukemia, 18.1 µM. The GI50 with NCI/ADR-RES ovarian was 18.2 µM; with SK-MEL-28 melanoma it was 15.7 µM; in the assay with SNB-75 CNS, 18.5 µM. Also, the TGI with CAKI-1 renal is 47.8 µM; in the assay with COLO 205 colon, 34.6 µM; with DU-145 prostate it was above 100 µM; with IGROV1 ovarian, 50.5 µM; in the assay on MDA-MB-435 it was 36.2 µM; with MOLT-4 leukemia, above 100 µM. In addition, the TGI worked out at 49.7 µM in the assay on NCI/ADR-RES ovarian, 31 µM in the assay on SK-MEL-28 melanoma and 47.9 µM in the assay on SNB-75 CNS.
As for `NC(CCCNCc1ccccc1O)C(=O)O` (stereo not given), the TGI with CAKI-1 renal, in the assay with COLO 205 colon, in the assay with IGROV1 ovarian, in the assay with MOLT-4 leukemia, with SK-MEL-28 melanoma and in the assay on SNB-75 CNS was above 100 µM each time.
Regarding `O=C(Nc1ccc(Cl)cc1Cl)/C(Cl)=C1/Sc2ccccc2NC1=O`, the TGI is above 100 µM in the assay on CAKI-1 renal; above 100 µM in the assay with COLO 205 colon; above 100 µM with IGROV1 ovarian; 87 µM in the assay on MOLT-4 leukemia; 75.7 µM with SK-MEL-28 melanoma; 85.9 µM with SNB-75 CNS.
As to `O=C1CC23CC(=O)CC2(C1)c1ccccc1C3=O` (stereo not given), the TGI in the assay with CAKI-1 renal, in the assay on COLO 205 colon, in the assay on IGROV1 ovarian, with MOLT-4 leukemia, with SK-MEL-28 melanoma and with SNB-75 CNS was above 100 µM in each case.
Regarding `Cc1ccc(S(=O)(=O)NC(=O)Nc2nc(Cl)cc(Cl)n2)cc1`, the TGI in the assay with CAKI-1 renal, in the assay with COLO 205 colon, in the assay with IGROV1 ovarian, with MOLT-4 leukemia, in the assay on SK-MEL-28 melanoma and in the assay with SNB-75 CNS was above 100 µM each time.
For the compound `C#Cc1ccc(-n2c(/C=C/c3ccc4ccccc4n3)nc3ncccc3c2=O)cc1`, the GI50 is 0.501 µM in the assay with CAKI-1 renal; 0.3 µM in the assay with COLO 205 colon; 0.428 µM with IGROV1 ovarian; 0.456 µM in the assay on MOLT-4 leukemia; 0.338 µM with NCI/ADR-RES ovarian; 0.904 µM in the assay with SK-MEL-28 melanoma. In addition, in the assay on SNB-75 CNS, the GI50 is 0.389 µM. Also, the TGI in the assay on CAKI-1 renal was 2.69 µM; in the assay with COLO 205 colon it was 0.734 µM; in the assay with IGROV1 ovarian, 1.58 µM; in the assay on MOLT-4 leukemia, above 100 µM; in the assay with NCI/ADR-RES ovarian, 1.23 µM; in the assay on SK-MEL-28 melanoma it was 2.13 µM. In the assay with SNB-75 CNS, this compound registered a TGI of 1.45 µM.
Turning to `CCC1=C[C@H]2CN(CCc3c([nH]c4ccccc34)[C@@](C(=O)OC)(c3cc4c(cc3OC)N(C)[C@H]3[C@@](O)(C(=O)OC)[C@H](OC(C)=O)[C@]5(CC)[C@@H]6C[C@@H]6CN6CC[C@]43[C@@H]65)C2)C1`, the GI50 in the assay on DU-145 prostate was 0.0239 µM; with IGROV1 ovarian it was 0.144 µM; in the assay on MDA-MB-435, 0.00603 µM; in the assay with MOLT-4 leukemia, 0.0737 µM; in the assay with NCI/ADR-RES ovarian, 0.161 µM; with SK-MEL-28 melanoma it was 2.91 µM. For the same compound, in the assay with SNB-75 CNS, the GI50 was 0.595 µM. In addition, the TGI is 3.15 µM in the assay with DU-145 prostate; 6.77 µM with IGROV1 ovarian; 0.0211 µM in the assay on MDA-MB-435; above 25 µM in the assay on MOLT-4 leukemia; 1.42 µM in the assay on NCI/ADR-RES ovarian; 6.48 µM in the assay with SK-MEL-28 melanoma. Moreover, in the assay with SNB-75 CNS, the TGI was above 25 µM.
For the compound `O=C(O)c1cn(C2CC2)c2cc(N3CCN(C(=O)Nc4nc(-c5ccc(Cl)cc5)cs4)CC3)c(F)cc2c1=O`, the GI50 with CAKI-1 renal was 3.81 µM; with COLO 205 colon, 3.32 µM; in the assay with DU-145 prostate, 2.29 µM; in the assay on IGROV1 ovarian, 0.815 µM; with MDA-MB-435 it was 2.75 µM; with NCI/ADR-RES ovarian, 4.21 µM. Also, the GI50 is 0.701 µM with SK-MEL-28 melanoma and 2.25 µM in the assay on SNB-75 CNS. Besides, the TGI in the assay on CAKI-1 renal, with COLO 205 colon, in the assay with DU-145 prostate, in the assay with IGROV1 ovarian, with MDA-MB-435 and in the assay with NCI/ADR-RES ovarian was above 100 µM each time. Further, the TGI in the assay with SK-MEL-28 melanoma is above 100 µM; in the assay on SNB-75 CNS, 20.5 µM.
`C#CCOc1c(OC)cc(C(=O)/C(C)=C/c2cccc(N=[N+]=[N-])c2)cc1OC`: the GI50 is 0.247 µM in the assay with CAKI-1 renal; 0.3 µM in the assay on COLO 205 colon; 0.296 µM in the assay with DU-145 prostate; 0.766 µM in the assay on IGROV1 ovarian; 0.362 µM in the assay with MOLT-4 leukemia; 0.119 µM in the assay on NCI/ADR-RES ovarian. In the assay with SK-MEL-28 melanoma, the GI50 was 29 µM. Further, the TGI in the assay on CAKI-1 renal is above 100 µM; with COLO 205 colon it was 2.98 µM; in the assay on DU-145 prostate it was above 100 µM; with IGROV1 ovarian, above 100 µM; in the assay on MOLT-4 leukemia, above 100 µM; in the assay with NCI/ADR-RES ovarian, above 100 µM. This compound yielded a TGI in the assay with SK-MEL-28 melanoma above 100 µM.
